The term IC50 denotes the midpoint of a concentration-inhibition curve.

Data on one molecule can be found in PubChem BioAssay AID1224910.

The structures appear in SMILES notation.

The target of this test is Serine/threonine-protein kinase PAK 2 (Homo sapiens) (UniProt Q13177). Put plainly: PubChem AID 1224910. To be noted: Caliper in vitro kinase assay, dephosphorylated PAK2.
Serine/threonine-protein kinase PAK 2 (Homo sapiens), sequence (Q13177 whole entry, looked up): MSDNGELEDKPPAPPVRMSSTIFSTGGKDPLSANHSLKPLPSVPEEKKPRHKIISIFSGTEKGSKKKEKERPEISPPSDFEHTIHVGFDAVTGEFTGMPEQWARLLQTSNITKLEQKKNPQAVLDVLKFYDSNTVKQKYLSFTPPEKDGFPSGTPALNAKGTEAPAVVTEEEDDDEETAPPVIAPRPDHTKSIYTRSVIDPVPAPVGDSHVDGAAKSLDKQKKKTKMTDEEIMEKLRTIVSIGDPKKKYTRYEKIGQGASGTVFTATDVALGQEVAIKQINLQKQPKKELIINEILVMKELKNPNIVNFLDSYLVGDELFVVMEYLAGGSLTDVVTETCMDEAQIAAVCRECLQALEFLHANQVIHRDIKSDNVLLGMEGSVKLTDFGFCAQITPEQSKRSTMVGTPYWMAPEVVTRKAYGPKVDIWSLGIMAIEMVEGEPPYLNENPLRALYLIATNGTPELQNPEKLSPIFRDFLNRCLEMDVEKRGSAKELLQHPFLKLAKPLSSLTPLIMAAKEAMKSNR

As for `CC(C)NC(=O)N1CC[C@H](N=C2Nc3cc(F)ccc3N(CC(F)F)c3ccc(Cl)cc32)C1`, the IC50 was 270 nM.
